The source made the active and inactive calls. The rule behind the calls is not given here. Some results are limits rather than exact numbers.

Series [1] concerns A549. As to the kind of experiment: Cytotoxicity against human A549 cells assessed as reduction in cell viability measured after 72 hrs by MTT assay. Type of series: cell-based.
Series [2] deals with Glycogen synthase kinase-3 beta (Homo sapiens, UniProt P49841). The experiment in a line: Inhibition of recombinant human GSK3beta using YRRAAVPPSPSLSRHSSPHQ(pS)EDEEE as substrate measured after 60 mins by ADP-Glo luminescence assay. In general terms: ADP-Glo turns the ADP formed in a reaction into a luminescent signal.
Glycogen synthase kinase-3 beta, sequence (P49841 whole entry): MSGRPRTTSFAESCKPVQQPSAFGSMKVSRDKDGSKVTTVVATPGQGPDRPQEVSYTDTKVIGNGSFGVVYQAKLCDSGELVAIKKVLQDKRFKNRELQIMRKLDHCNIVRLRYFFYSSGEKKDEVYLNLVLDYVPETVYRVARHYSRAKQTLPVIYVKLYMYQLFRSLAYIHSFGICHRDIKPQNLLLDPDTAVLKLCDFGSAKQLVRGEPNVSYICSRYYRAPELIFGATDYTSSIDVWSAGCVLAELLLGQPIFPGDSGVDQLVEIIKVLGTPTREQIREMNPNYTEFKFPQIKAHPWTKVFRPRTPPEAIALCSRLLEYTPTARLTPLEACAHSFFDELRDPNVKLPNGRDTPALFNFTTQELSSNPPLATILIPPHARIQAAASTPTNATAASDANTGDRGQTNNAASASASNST
The subject of series [3] is PBMC. The experiment in a line: Cytotoxicity against human PBMC assessed as reduction in cell viability at 0.1 to 10 uM measured after 24 hrs by MTT assay. The class given is cell-based. (Tetrazolium assays rely on reduction of a dye to a coloured formazan, in cell work by metabolically active cells.)
Series [4] deals with Rattus norvegicus. The experiment in a line: Antidiabetic activity in […]/STZ-induced obese type-2 diabetes Wistar rat model assessed as reduction in blood glucose level at 10 mg/kg, ip pretreated for 30 mins followed by glucose challenge and measured up to 120 mins by OGTT. Type of series: functional, organism-based.
Series [5] deals with Rattus norvegicus. The experiment in a line: Antidiabetic activity in […]/STZ-induced obese type-2 diabetes Wistar rat model assessed as reduction in blood glucose level at 50 mg/kg, ip pretreated for 30 mins followed by glucose challenge and measured up to 120 mins by OGTT. Type of series: functional, organism-based.
For series [6], the system named is PBMC. As to the kind of experiment: Cytotoxicity against human PBMC assessed as reduction in cell viability at 10 uM measured after 24 hrs by MTT assay. Type of series: cell-based.
Setting [7] is: Homo sapiens, A549, 72 h, read-out: IC50.

In the case of `Cc1ccc(C(=O)/C=C2\C(=O)Nc3ccccc32)cc1`, the IC50 – broadly, the concentration needed to halve the response being measured – was 18.7 µM in series [1] (setting [7]) and greater than 10 µM in series [2].

Turning to `COC(=O)Nc1ccc2c(c1)/C(=C/c1ccc(O)cc1)C(=O)N2`, the IC50 in series [1] (a549, read-out: IC50) stood at 44.4 µM. Moreover, the Activity entry in series [3] is given as “Non-Toxic”.

For the molecule `COC(=O)Nc1ccc2c(c1)/C(=C/c1ccc(Br)cc1)C(=O)N2`, the IC50 in series [1] (setting [7]) was greater than 100 µM; in series [2] it was greater than 10 µM.

For `N#C[C@@H]1CCCN1C(=O)CNC12CC3CC(CC(O)(C3)C1)C2`, the result in series [4] was Active.

With `CC(=O)Nc1ccc2c(c1)C(CC(=O)O)(OC(C)=O)C(=O)N2` (stereo not given), the IC50 in series [2] is greater than 10 µM.

`COc1cccc2c1C(=O)c1c(O)c3c(c(O)c1C2=O)C[C@@](O)(C(=O)CO)C[C@@H]3O[C@H]1C[C@H](N)[C@H](O)[C@H](C)O1` [DOXORUBICIN]: the IC50 in series [1] (setting [7]) worked out at 0.17 µM.

For `O=C1Nc2ccccc2/C1=C/c1ccccn1`, the figures for the IC50 in series [1] (setting [7]) and in series [2] were 48 µM and 0.00419 µM, respectively. Also, the outcome in series [5] was Active. Also, the Activity entry in series [3] is “Non-Toxic”.

In the case of `CCC(=O)Nc1cc(NC(=O)CC)c2c(c1)C(CC#N)(OC(=O)CC)C(=O)N2` (stereo not given), the IC50 in series [2] was greater than 10 µM.

With `O=C1Nc2ccc([N+](=O)[O-])cc2/C1=C/c1ccco1`, the half-maximal inhibitory concentration (IC50) was found to be 329 µM in series [1] (a549, read-out: IC50) and 12.8 µM in series [2].

`COc1cccc2c1C(=O)c1c(O)c3c(c(O)c1C2=O)C[C@@](O)(C(C)=O)C[C@@H]3O[C@H]1C[C@H](N)[C@H](O)[C@H](C)O1` [DAUNORUBICIN]: the IC50 in series [1] (setting [7]) worked out at 0.15 µM.

Consider `O=C1Nc2ccc(Br)cc2C1=Cc1ccncc1` (mixture of isomers), for which the IC50 is 22.3 µM in series [1] (setting [7]) and greater than 10 µM in series [2].

In the case of `O=C1Nc2ccccc2C1=Cc1ccncc1` (mixture of isomers), the results for the IC50 in series [1] (setting [7]) and in series [2] were 80.3 µM and greater than 10 µM, respectively.

Turning to `O=C1Nc2ccc(Br)cc2C1=Cc1ccc(Br)cc1` (mixture of isomers), the IC50 was 242 µM in series [1] (setting [7]) and greater than 10 µM in series [2].

In the case of `CC(=O)Nc1ccc2c(c1)/C(=C/c1cccc(O)c1)C(=O)N2`, the figures for the IC50 in series [1] (setting [7]) and in series [2] were 176 µM and greater than 10 µM, respectively.

Regarding `COC(=O)Nc1ccc2c(c1)C(=Cc1ccc([N+](=O)[O-])cc1)C(=O)N2` (mixture of isomers), in series [1] (a549, read-out: IC50), the IC50 was greater than 100 µM. Further, the Activity result in series [3] is “Non-Toxic”.

Turning to `COc1ccc(C(=O)CC2(O)C(=O)Nc3ccccc32)cc1` (stereo not given), the IC50 in series [1] (setting [7]) is greater than 100 µM; in series [2], greater than 10 µM.

On to `CC[C@@]1(O)C(=O)OCc2c1cc1n(c2=O)Cc2cc3ccccc3nc2-1` [CAMPTOTHECIN], for which the IC50 in series [1] (setting [7]) came to 3.32 µM.

Take `COc1ccc2c(c1)/C(=C/C#N)C(=O)N2Cc1ccccc1`: in series [2], the IC50 was greater than 10 µM.

Regarding `O=C1Nc2ccccc2C1=Cc1cccnc1` (mixture of isomers), the IC50 in series [1] (a549, read-out: IC50) was 67.5 µM; in series [2] it was greater than 10 µM.

On to `O=C1Nc2ccc(NC(=O)c3ccccc3)cc2/C1=C/c1ccc(O)cc1`, for which, in series [6], the Activity result was “Toxic”. Also, the half-maximal inhibitory concentration (IC50) in series [1] (a549, read-out: IC50) was determined as 412 µM; in series [2], 4.34 µM.

`O=C1Nc2ccc(Br)cc2C1=Cc1ccco1` (mixture of isomers): the half-maximal inhibitory concentration (IC50) in series [1] (setting [7]) was 449 µM; in series [2], greater than 10 µM.

Take `N#CCC1(O)C(=O)Nc2ccc(NC(=O)c3ccccc3)cc21` (stereo not given): in series [2], the IC50 is greater than 10 µM.

As for `O=C1Nc2ccc(Br)cc2C1=Cc1cccnc1` (mixture of isomers), the IC50 in series [1] (setting [7]) was 31.4 µM; in series [2], greater than 10 µM.

As for `O=C1Nc2ccc([N+](=O)[O-])cc2C1=Cc1cccnc1` (mixture of isomers), the half-inhibitory concentration (IC50) in series [1] (a549, read-out: IC50) was 429 µM; in series [2], greater than 10 µM.

`O=C1Nc2ccccc2C12CC2c1ccccn1` (stereo not given): the IC50 in series [1] (setting [7]) was greater than 100 µM; in series [2], 1.23 µM. In series [3], the Activity result is reported as “Non-Toxic”.

Turning to `COc1ccc2c(c1)C(O)(CC(=O)c1ccc(C)cc1)C(=O)N2` (stereo not given), the IC50 in series [1] (setting [7]) was greater than 100 µM; in series [2], greater than 10 µM.

On to `O=C1Nc2ccc(Br)cc2C1=Cc1cccs1` (mixture of isomers), for which the figures for the IC50 in series [1] (setting [7]) and in series [2] were 427 µM and greater than 10 µM, respectively.

As to `O=C1Nc2ccc([N+](=O)[O-])cc2/C1=C\c1ccccn1`, the 50% inhibitory concentration (IC50) result in series [1] (a549) is “Non-Toxic”; in series [2], 20 µM.

`COc1ccc2c(c1)/C(=C/C(=O)O)C(=O)N2`: the IC50 in series [2] is greater than 10 µM.

Consider `COc1ccc(C(=O)CC2(O)C(=O)Nc3ccc(Br)cc32)cc1` (stereo not given), for which the values for the IC50 in series [1] (setting [7]) and in series [2] were 474 µM and greater than 10 µM, respectively.

Consider `Cc1ccc(C(=O)CC2(O)C(=O)Nc3ccc(Br)cc32)cc1` (stereo not given), for which the IC50 was greater than 100 µM in series [1] (setting [7]) and greater than 10 µM in series [2].

As for `COc1cc(NC(C)=O)c2c(c1)C(CC#N)(OC(C)=O)C(=O)N2` (stereo not given), the IC50 in series [2] was greater than 10 µM.

For `COc1cc(/C=C2\C(=O)Nc3ccc(NC(C)=O)cc32)cc(OC)c1OC`, the IC50 in series [1] (a549, read-out: IC50) is 149 µM. The Activity result in series [3] was “Non-Toxic”.

Turning to `O=C1Nc2ccccc2/C1=C/c1ccco1`, the half-inhibitory concentration (IC50) in series [1] (setting [7]) is 595 µM; in series [2], greater than 10 µM.

Take `O=C1Nc2ccccc2/C1=C/c1cccs1`: the IC50 was 491 µM in series [1] (setting [7]) and greater than 10 µM in series [2].

Take `O=C1Nc2ccc(Br)cc2/C1=C\c1ccccn1`: the IC50 in series [1] (setting [7]) was 90.6 µM; in series [2] it was greater than 10 µM.

For `Cc1ccc(C(=O)CC2(O)C(=O)Nc3ccccc32)cc1` (stereo not given), the IC50 in series [1] (setting [7]) was 171 µM; in series [2], greater than 10 µM.

On to `O=C1Nc2ccc([N+](=O)[O-])cc2C1=Cc1ccncc1` (mixture of isomers), for which the IC50 result in series [1] (a549) was “Non-Toxic”; in series [2] it was greater than 10 µM.

For the origin of these results see ChEMBL document CHEMBL4392829, “Synthesis and biological evaluation of 3-substituted 2-oxindole derivatives as new glycogen synthase kinase 3β inhibitors” (Bioorg Med Chem, 2019).
